Several values for one entry are separate records, joined by “and”; a condition that tells them apart may be missing. Equal values may be shown once. Toxic doses and inconclusive results are not listed. Rule as the data show it: active = T/C of 150% or more; inactive = T/C below 125%.
System: L1210 leukemia ip in BDF1 mice, survival T/C
Assay: NCI In Vivo Anticancer Drug Screen. Data for tumor model L1210 Leukemia (intraperitoneal) in B6D2F1 (BDF1) mice
Conditions: endpoint: mean survival time, higher = longer survival
Method in brief: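 Tumor cells were implanted, animals were treated, and survival was followed. The result divides the treated measurement by the vehicle-control measurement.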

[1] = dose: 50.0 mg/kg/injection, schedule: Q01DX009 (ip), vehicle: water
[2] = dose: 100.0 mg/kg/injection, schedule: Q01DX009 (ip), vehicle: water
[3] = dose: 100.0 mg/kg/injection, schedule: Q04DX003 (ip), vehicle: water
[4] = dose: 200.0 mg/kg/injection, schedule: Q04DX003 (ip), vehicle: water
[5] = dose: 100.0 mg/kg/injection, schedule: Q01DX001 (ip), vehicle: carboxymethylcellulose (CMC)
[6] = dose: 200.0 mg/kg/injection, schedule: Q01DX001 (ip), vehicle: carboxymethylcellulose (CMC)
[7] = dose: 400.0 mg/kg/injection, schedule: Q01DX001 (ip), vehicle: carboxymethylcellulose (CMC)
[8] = dose: 300.0 mg/kg/injection, schedule: Q01DX001 (ip), vehicle: carboxymethylcellulose (CMC)
[9] = dose: 100.0 mg/kg/injection, schedule: Q04DX003 (ip), vehicle: saline
[10] = dose: 200.0 mg/kg/injection, schedule: Q04DX003 (ip), vehicle: saline
[11] = dose: 400.0 mg/kg/injection, schedule: Q04DX003 (ip), vehicle: saline

Measured: T/C

CCN(CC)CCCNC(C)CCCN(CC)CC (stereo not drawn)
inactive: [1] 106 % of control | [2] 97 % of control and 107 % of control | [3] 98 % of control | dose: 200.0 mg/kg/injection, schedule: Q01DX009 (ip), vehicle: water 101 % of control and 103 % of control | [4] 98 % of control | dose: 400.0 mg/kg/injection, schedule: Q01DX009 (ip), vehicle: water 93 % of control

NCCN1C(=O)C2C3CCC(O3)C2C1=O (stereo not drawn)
inactive: [5] 97 % of control and 107 % of control | dose: 100.0 mg/kg/injection, schedule: Q04DX002 (ip), vehicle: carboxymethylcellulose (CMC) 97 % of control and 88 % of control | dose: 100.0 mg/kg/injection, schedule: Q04DX003 (ip), vehicle: carboxymethylcellulose (CMC) 101 % of control and 112 % of control | [6] 97 % of control and 104 % of control | dose: 200.0 mg/kg/injection, schedule: Q04DX002 (ip), vehicle: carboxymethylcellulose (CMC) 93 % of control and 94 % of control | dose: 200.0 mg/kg/injection, schedule: Q04DX003 (ip), vehicle: carboxymethylcellulose (CMC) 104 % of control and 105 % of control | [7] 96 % of control and 103 % of control | dose: 400.0 mg/kg/injection, schedule: Q04DX002 (ip), vehicle: carboxymethylcellulose (CMC) 108 % of control and 88 % of control | dose: 400.0 mg/kg/injection, schedule: Q04DX003 (ip), vehicle: carboxymethylcellulose (CMC) 96 % of control and 100 % of control

O=C(O)c1cc(Cl)ccc1-c1ccc(Cl)cc1C(=O)Nc1ccc2c(c1)Cc1ccccc1-2
inactive: dose: 75.0 mg/kg/injection, schedule: Q01DX001 (ip), vehicle: carboxymethylcellulose (CMC) 102 % of control | dose: 150.0 mg/kg/injection, schedule: Q01DX001 (ip), vehicle: carboxymethylcellulose (CMC) 113 % of control | [8] 104 % of control

CC(C)C[CH2][Pb]([CH2]CC(C)C)([CH2]CC(C)C)[O]C(=O)C(C)C
inactive: dose: 1.56 mg/kg/injection, schedule: Q01DX009 (ip), vehicle: Klucel (hydroxypropylcellulose) (HPC) 97 % of control | dose: 3.12 mg/kg/injection, schedule: Q01DX009 (ip), vehicle: Klucel (hydroxypropylcellulose) (HPC) 93 % of control | dose: 3.12 mg/kg/injection, schedule: Q04DX002 (ip), vehicle: Klucel (hydroxypropylcellulose) (HPC) 111 % of control | dose: 6.25 mg/kg/injection, schedule: Q04DX002 (ip), vehicle: Klucel (hydroxypropylcellulose) (HPC) 115 % of control

O=C(Nc1cccc(Cl)c1)Nc1ccc(Br)c(C(F)(F)F)c1
inactive: dose: 50.0 mg/kg/injection, schedule: Q01DX001 (ip), vehicle: carboxymethylcellulose (CMC) 100 % of control | [5] 94 % of control | [6] 96 % of control | [7] 94 % of control

CC(=O)O[C@@]1(C)[C@@H](C)C(=O)O[C@@H]2CCN3CC=C(COC(=O)[C@]1(C)O)[C@H]23
inactive: dose: 6.25 mg/kg/injection, schedule: Q01DX009 (ip), vehicle: other 97 % of control | dose: 12.5 mg/kg/injection, schedule: Q01DX009 (ip), vehicle: other 94 % of control | dose: 25.0 mg/kg/injection, schedule: Q01DX009 (ip), vehicle: other 120 % of control | dose: 25.0 mg/kg/injection, schedule: Q01DX009 (ip), vehicle: saline 114 % of control | dose: 50.0 mg/kg/injection, schedule: Q01DX009 (ip), vehicle: carboxymethylcellulose (CMC) 124 % of control | dose: 100.0 mg/kg/injection, schedule: Q01DX009 (ip), vehicle: carboxymethylcellulose (CMC) 118 % of control

CCC1(C)N=C(N)Nc2nc3ccccc3n21 (stereo not drawn)
inactive: dose: 100.0 mg/kg/injection, schedule: Q01DX001 (ip), vehicle: saline 96 % of control | dose: 200.0 mg/kg/injection, schedule: Q01DX001 (ip), vehicle: saline 94 % of control

O=S(=O)(Nc1ccccc1)c1ccc(C2CC3(Cl)C(Cl)=C(Cl)C2(Cl)C3(Cl)Cl)cc1 (stereo not drawn)
inactive: dose: 29.0 mg/kg/injection, schedule: Q01DX015 (ip), vehicle: carboxymethylcellulose (CMC) 97 % of control | dose: 44.0 mg/kg/injection, schedule: Q01DX015 (ip), vehicle: carboxymethylcellulose (CMC) 104 % of control | dose: 66.0 mg/kg/injection, schedule: Q01DX015 (ip), vehicle: carboxymethylcellulose (CMC) 95 % of control | dose: 88.8 mg/kg/injection, schedule: Q01DX001 (ip), vehicle: carboxymethylcellulose (CMC) 96 % of control and 100 % of control | [5] 110 % of control | dose: 100.0 mg/kg/injection, schedule: Q01DX009 (ip), vehicle: saline sonified 86 % of control | dose: 100.0 mg/kg/injection, schedule: Q01DX015 (ip), vehicle: carboxymethylcellulose (CMC) 92 % of control | dose: 100.0 mg/kg/injection, schedule: Q04DX003 (ip), vehicle: Klucel (hydroxypropylcellulose) (HPC) 100 % of control | dose: 133.0 mg/kg/injection, schedule: Q01DX001 (ip), vehicle: carboxymethylcellulose (CMC) 107 % of control | [6] 96 % of control and 100 % of control | dose: 200.0 mg/kg/injection, schedule: Q01DX015 (ip), vehicle: carboxymethylcellulose (CMC) 93 % of control | dose: 200.0 mg/kg/injection, schedule: Q04DX003 (ip), vehicle: Klucel (hydroxypropylcellulose) (HPC) 97 % of control | [8] 100 % of control and 109 % of control | [7] 105 % of control | dose: 400.0 mg/kg/injection, schedule: Q01DX009 (ip), vehicle: saline sonified 98 % of control | dose: 400.0 mg/kg/injection, schedule: Q01DX015 (ip), vehicle: carboxymethylcellulose (CMC) 89 % of control | dose: 400.0 mg/kg/injection, schedule: Q04DX003 (ip), vehicle: Klucel (hydroxypropylcellulose) (HPC) 92 % of control

ClCc1ccccn1
inactive: dose: 100.0 mg/kg/injection, schedule: Q01DX009 (ip), vehicle: saline 92 % of control | [9] 98 % of control | dose: 200.0 mg/kg/injection, schedule: Q01DX009 (ip), vehicle: saline 95 % of control | [10] 101 % of control | dose: 400.0 mg/kg/injection, schedule: Q01DX009 (ip), vehicle: saline 89 % of control | [11] 94 % of control

CCOC(=O)c1c(C)oc(=O)c(Br)c1C
inactive: [9] 97 % of control | [10] 100 % of control | [11] 94 % of control

O=C(Nc1ccccc1F)OCCOc1ccc(-c2ccccc2)cc1
inactive: dose: 100.0 mg/kg/injection, schedule: Q01DX009 (ip), vehicle: Klucel (hydroxypropylcellulose) (HPC) 96 % of control | dose: 200.0 mg/kg/injection, schedule: Q01DX009 (ip), vehicle: Klucel (hydroxypropylcellulose) (HPC) 95 % of control | dose: 400.0 mg/kg/injection, schedule: Q01DX009 (ip), vehicle: Klucel (hydroxypropylcellulose) (HPC) 98 % of control

C1CCCN(/N=N/N2CCCCCC2)CC1
inactive: dose: 100.0 mg/kg/injection, schedule: Q01DX001 (ip), vehicle: saline with Tween-80 100 % of control | dose: 200.0 mg/kg/injection, schedule: Q01DX001 (ip), vehicle: saline with Tween-80 92 % of control | dose: 400.0 mg/kg/injection, schedule: Q01DX001 (ip), vehicle: saline with Tween-80 100 % of control

CN(C(N)=O)c1c(O)nc(N)[nH]c1=O
inactive: dose: 25.0 mg/kg/injection, schedule: Q01DX009 (ip), vehicle: water 98 % of control | [1] 98 % of control | dose: 50.0 mg/kg/injection, schedule: Q04DX003 (ip), vehicle: water 108 % of control | [2] 102 % of control | [3] 97 % of control | dose: 150.0 mg/kg/injection, schedule: Q01DX009 (ip), vehicle: water 105 % of control | [4] 90 % of control
